Drawing on patent US10435399B2, “HDAC6 inhibitory heterocyclic compound” (TAKEDA PHARMACEUTICAL COMPANY LIMITED, priority 2017, dated 2019), this text covers inhibition for 21 compounds.

The assay concerns the target T1, HDAC6 enzyme (Homo sapiens, UniProt Q9UBN7).
T1 construct: transducing full length HDAC6 gene into Sf-9 insect cells; GST; purchased SignalChem; host or cells: Sf-9 insect cells
T1 sequence (Q9UBN7 1-1215): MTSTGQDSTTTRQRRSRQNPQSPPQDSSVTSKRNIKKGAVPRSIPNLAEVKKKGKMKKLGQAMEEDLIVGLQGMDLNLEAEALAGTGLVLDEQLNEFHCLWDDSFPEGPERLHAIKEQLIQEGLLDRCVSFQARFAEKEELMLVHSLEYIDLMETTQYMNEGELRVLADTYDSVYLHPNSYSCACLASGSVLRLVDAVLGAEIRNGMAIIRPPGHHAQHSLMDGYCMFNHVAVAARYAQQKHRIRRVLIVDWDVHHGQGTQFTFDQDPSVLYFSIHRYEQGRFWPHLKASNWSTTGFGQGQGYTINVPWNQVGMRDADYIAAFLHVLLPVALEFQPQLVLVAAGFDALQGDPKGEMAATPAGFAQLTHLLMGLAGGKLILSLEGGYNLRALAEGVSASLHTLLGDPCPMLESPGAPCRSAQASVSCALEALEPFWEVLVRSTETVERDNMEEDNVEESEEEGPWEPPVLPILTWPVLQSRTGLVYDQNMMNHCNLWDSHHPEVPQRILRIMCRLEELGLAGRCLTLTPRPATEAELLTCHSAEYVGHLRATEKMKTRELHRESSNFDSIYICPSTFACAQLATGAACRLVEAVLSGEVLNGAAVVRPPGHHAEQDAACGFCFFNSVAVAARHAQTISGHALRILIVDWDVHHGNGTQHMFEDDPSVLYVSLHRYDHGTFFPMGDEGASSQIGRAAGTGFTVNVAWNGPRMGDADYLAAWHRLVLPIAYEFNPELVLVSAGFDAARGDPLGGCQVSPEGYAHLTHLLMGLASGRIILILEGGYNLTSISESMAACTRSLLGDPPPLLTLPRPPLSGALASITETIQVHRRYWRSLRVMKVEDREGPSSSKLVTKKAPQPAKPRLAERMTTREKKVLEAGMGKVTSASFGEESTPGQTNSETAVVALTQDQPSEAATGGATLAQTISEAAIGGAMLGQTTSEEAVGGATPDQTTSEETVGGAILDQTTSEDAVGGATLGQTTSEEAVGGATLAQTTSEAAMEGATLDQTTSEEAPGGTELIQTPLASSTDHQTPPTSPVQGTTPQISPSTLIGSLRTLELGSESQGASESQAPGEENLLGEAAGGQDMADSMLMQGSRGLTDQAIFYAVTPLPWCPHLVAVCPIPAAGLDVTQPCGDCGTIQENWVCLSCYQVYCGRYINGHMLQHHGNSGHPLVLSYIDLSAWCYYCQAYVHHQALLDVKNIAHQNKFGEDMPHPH
Kind of assay: HDAC6 enzyme inhibitory activity (HDAC-Glo I/II Assay kit). The format is biochemical. Particulars: 10 μM; wells without enzyme = 100% inhibition; read-out: HDAC6 inhibitory rate (%) (10 μM). The procedure, abridged:
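Sf-9-derived GST-purified full-length HDAC6 + cpd, 60 min RT, 24 mM Tris pH 7.5/0.6 mM glutathione/0.01% Tween-20; add HDAC-Glo substrate-developer, 20 min RT; luminescence. No-enzyme = 100% inhibition.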

Turning to `O=C(CCC(F)(F)F)N[C@@H]1CCCC[C@H]1N1Cc2ccc(-c3nnc(C(F)F)o3)cc2C1=O` [Example 65, N-((1R,2R)-2-(6-(5-(difluoromethyl)-1,3,4-oxadiazol-2-yl)-1-oxo-1,3-dihydro-2H-isoindol-2-yl)cyclohexyl)-4,4,4-trifluorobutanamide], the inhibition at 10 µM came to 100%.
In the case of `CC(F)C(=O)N[C@@H]1CCCC[C@H]1N1Cc2ccc(-c3nnc(C(F)F)o3)cc2C1=O` (stereo partly drawn) [Example 66, N-((1R,2R)-2-(6-(5-(difluoromethyl)-1,3,4-oxadiazol-2-yl)-1-oxo-1,3-dihydro-2H-isoindol-2-yl)cyclohexyl)-2-fluoropropanamide], the inhibition at 10 µM is 101%.
Under `CCC(F)(F)C(=O)N[C@@H]1CCCC[C@H]1N1Cc2ccc(-c3nnc(C(F)F)o3)cc2C1=O` [Example 67, N-((1R,2R)-2-(6-(5-(difluoromethyl)-1,3,4-oxadiazol-2-yl)-1-oxo-1,3-dihydro-2H-isoindol-2-yl)cyclohexyl)-2,2-difluorobutanamide] stands 100%.
With `COC1(C(=O)N[C@@H]2CCCC[C@H]2N2Cc3ccc(-c4nnc(C(F)F)o4)cc3C2=O)CC1` [Example 68, N-((1R,2R)-2-(6-(5-(difluoromethyl)-1,3,4-oxadiazol-2-yl)-1-oxo-1,3-dihydro-2H-isoindol-2-yl)cyclohexyl)-1-methoxycyclopropanecarboxamide] the figure was 101%.
With `O=C(N[C@@H]1CCCC[C@H]1N1Cc2ccc(-c3nnc(C(F)F)o3)cc2C1=O)C1CC1F` (stereo partly drawn) [Example 70, N-((1R,2R)-2-(6-(5-(difluoromethyl)-1,3,4-oxadiazol-2-yl)-1-oxo-1,3-dihydro-2H-isoindol-2-yl)cyclohexyl)-2-fluorocyclopropanecarboxamide] the figure was 100%; with `O=C(N[C@@H]1CCCC[C@H]1N1Cc2ccc(-c3nnc(C(F)F)o3)cc2C1=O)C1CC1C(F)F` (stereo partly drawn) [Example 71, 2-(difluoromethyl)-N-((1R,2R)-2-(6-(5-(difluoromethyl)-1,3,4-oxadiazol-2-yl)-1-oxo-1,3-dihydro-2H-isoindol-2-yl)cyclohexyl)cyclopropanecarboxamide (optical isomer)], 97%; with `O=C(N[C@@H]1CCCC[C@H]1N1Cc2ccc(-c3nnc(C(F)F)o3)cc2C1=O)C1CC12CCC2` (stereo partly drawn) [Example 72, N-((1R,2R)-2-(6-(5-(difluoromethyl)-1,3,4-oxadiazol-2-yl)-1-oxo-1,3-dihydro-2H-isoindol-2-yl)cyclohexyl)spiro[2.3]hexane-1-carboxamide (optical isomer)], 97%.
As to `CC1CC1C(=O)N[C@@H]1CCCC[C@H]1N1Cc2ccc(-c3nnc(C(F)F)o3)cc2C1=O` (stereo partly drawn) [Example 73, N-((1R,2R)-2-(6-(5-(difluoromethyl)-1,3,4-oxadiazol-2-yl)-1-oxo-1,3-dihydro-2H-isoindol-2-yl)cyclohexyl)-2-methylcyclopropanecarboxamide], the inhibition at 10 µM was determined as 100%.
For the compound `O=C(N[C@@H]1CCCC[C@H]1N1Cc2ccc(-c3nnc(C(F)F)o3)cc2C1=O)C1CC1(F)F` (stereo partly drawn) [Example 74, N-((1R,2R)-2-(6-(5-(difluoromethyl)-1,3,4-oxadiazol-2-yl)-1-oxo-1,3-dihydro-2H-isoindol-2-yl)cyclohexyl)-2,2-difluorocyclopropanecarboxamide (optical isomer)], the inhibition at 10 µM is 102%.
With `CC1(C)CC1C(=O)N[C@@H]1CCCC[C@H]1N1Cc2ccc(-c3nnc(C(F)F)o3)cc2C1=O` (stereo partly drawn) [Example 75, N-((1R,2R)-2-(6-(5-(difluoromethyl)-1,3,4-oxadiazol-2-yl)-1-oxo-1,3-dihydro-2H-isoindol-2-yl)cyclohexyl)-2,2-dimethylcyclopropanecarboxamide] the figure was 101%; with `O=C1c2cc(-c3nnc(C(F)F)o3)ccc2CN1[C@@H]1CCCC[C@H]1NC(=O)C1(O)CCC1` [Example 76, N-((1R,2R)-2-(6-(5-(difluoromethyl)-1,3,4-oxadiazol-2-yl)-1-oxo-1,3-dihydro-2H-isoindol-2-yl)cyclohexyl)-1-hydroxycyclobutanecarboxamide], 101%; with `O=C1c2cc(-c3nnc(C(F)F)o3)ccc2CN1[C@@H]1CCCC[C@H]1NC(=O)C1(F)CCC1` [Example 77, N-((1R,2R)-2-(6-(5-(difluoromethyl)-1,3,4-oxadiazol-2-yl)-1-oxo-1,3-dihydro-2H-isoindol-2-yl)cyclohexyl)-1-fluorocyclobutanecarboxamide], 100%.
With `N#CC1(C(=O)N[C@@H]2CCCC[C@H]2N2Cc3ccc(-c4nnc(C(F)F)o4)cc3C2=O)CCC1` [Example 78, 1-cyano-N-((1R,2R)-2-(6-(5-(difluoromethyl)-1,3,4-oxadiazol-2-yl)-1-oxo-1,3-dihydro-2H-isoindol-2-yl)cyclohexyl)cyclobutanecarboxamide] the figure was 100%; with `O=C(N[C@@H]1CCCC[C@H]1N1Cc2ccc(-c3nnc(C(F)F)o3)cc2C1=O)C1CC2(CCC2)C1` [Example 79, N-((1R,2R)-2-(6-(5-(difluoromethyl)-1,3,4-oxadiazol-2-yl)-1-oxo-1,3-dihydro-2H-isoindol-2-yl)cyclohexyl)spiro[3.3]heptane-2-carboxamide], 97%; with `O=C1c2cc(-c3nnc(C(F)F)o3)ccc2CN1[C@@H]1CCCC[C@H]1NC(=O)C12CC(C(F)(F)F)(C1)C2` [Example 80, N-((1R,2R)-2-(6-(5-(difluoromethyl)-1,3,4-oxadiazol-2-yl)-1-oxo-1,3-dihydro-2H-isoindol-2-yl)cyclohexyl)-3-(trifluoromethyl)bicyclo[1.1.1]pentane-1-carboxamide], 101%.
`CC(C)(O)C(=O)N[C@@H]1CCCC[C@H]1N1Cc2ccc(-c3nnc(C(F)F)o3)cc2C1=O` [Example 81, N-((1R,2R)-2-(6-(5-(difluoromethyl)-1,3,4-oxadiazol-2-yl)-1-oxo-1,3-dihydro-2H-isoindol-2-yl)cyclohexyl)-2-hydroxy-2-methylpropanamide]: the inhibition at 10 µM amounted to 101%.
Under `CC(C)(C#N)C(=O)N[C@@H]1CCCC[C@H]1N1Cc2ccc(-c3nnc(C(F)F)o3)cc2C1=O` [Example 82, 2-cyano-N-((1R,2R)-2-(6-(5-(difluoromethyl)-1,3,4-oxadiazol-2-yl)-1-oxo-1,3-dihydro-2H-isoindol-2-yl)cyclohexyl)-2-methylpropanamide] stands 100%; under `CC(C)(O)CC(=O)N[C@@H]1CCCC[C@H]1N1Cc2ccc(-c3nnc(C(F)F)o3)cc2C1=O` [Example 83, N-((1R,2R)-2-(6-(5-(difluoromethyl)-1,3,4-oxadiazol-2-yl)-1-oxo-1,3-dihydro-2H-isoindol-2-yl)cyclohexyl)-3-hydroxy-3-methylbutanamide], 102%.
With `CC(C)(C(=O)N[C@@H]1CCCC[C@H]1N1Cc2ccc(-c3nnc(C(F)F)o3)cc2C1=O)C(F)(F)F` [Example 84, N-((1R,2R)-2-(6-(5-(difluoromethyl)-1,3,4-oxadiazol-2-yl)-1-oxo-1,3-dihydro-2H-isoindol-2-yl)cyclohexyl)-3,3,3-trifluoro-2,2-dimethylpropanamide] the figure was 100%; with `COC(C)(C)C(=O)N[C@@H]1CCCC[C@H]1N1Cc2ccc(-c3nnc(C(F)F)o3)cc2C1=O` [Example 85, N-((1R,2R)-2-(6-(5-(difluoromethyl)-1,3,4-oxadiazol-2-yl)-1-oxo-1,3-dihydro-2H-isoindol-2-yl)cyclohexyl)-2-methoxy-2-methylpropanamide], 101%.
Under `N#CC1(CC(=O)N[C@@H]2CCCC[C@H]2N2Cc3ccc(-c4nnc(C(F)F)o4)cc3C2=O)CC1` [Example 86, 2-(1-cyanocyclopropyl)-N-((1R,2R)-2-(6-(5-(difluoromethyl)-1,3,4-oxadiazol-2-yl)-1-oxo-1,3-dihydro-2H-isoindol-2-yl)cyclohexyl)acetamide] stands 96%.
